From patent US20220169660A1, “CYCLIC AMINO-PYRAZINECARBOXAMIDE COMPOUNDS AND USES THEREOF” (SILVERBACK THERAPEUTICS, INC., priority 2019, published 2022)

Tests used:
[1] = tested on: TGFβ/SMAD Singling Pathway SBE reporter cell line; assay: TGFβ reporter assay (in vitro small molecule screening); assay type: cell-based; conditions: SBE luciferase reporter cells, TGFβ stimulation, 18 h, luminescence
Description: TGFβ/SMAD Singling Pathway SBE reporter cell line was obtained from BPS Bioscience. Cells were passed, expanded, and stored in liquid nitrogen as per the supplier's instructions with the exception that growth media is changed to DMEM-C with Geneticin (DMEM supplemented with 10% fetal bovine serum, 1×NEAA, 1 mM Pyruvate, 2 mM glutamine, 50 μg/mL penicillin, 50 U/mL streptomycin and 400 μg/mL of Geneticin). The assay media was MEM supplemented with […] fetal bovine serum, 1×NEAA, 1 mM Pyruvate, 50 μg/mL penicillin and 50 U/mL streptomycin.
Test samples (at desired concentrations diluted in assay media) were added to a 96-well assay plate, 20 μL per well. Reporter cells were harvested from the tissue culture flasks by incubation in small quantity of PBS at 37° C. for two minutes after the media in the flask is removed and cells rinsed with PBS. Cells were counted and diluted in the assay media at approximately 0.5×10^6 cells/mL and then 80 μL/well of cells were added to the assay plate containing the 20 μL/well of test samples (or media only), and incubated for approximately 5-6 hours at 37° C. in a 5% CO2 humidified incubator. After that time, 15 μL of TGFβ diluted to 12 ng/mL in the assay media was added to the plate. Controls included TGFβ titration (from 50 to 0 ng/mL) without inhibitors, and media only (without cells, inhibitor or TGFβ). Plates were incubated at 37° C. in a 5% CO2 humidified incubator for 18 h. Luciferase substrate solution is subsequently added at 100 μL per well, incubated in the dark at room temperature for 15 min, and luminescence is measured using a luminometer. EC50 values and curve fits were obtained using Prism (GraphPad Software).

TGFBR2 = biological target: T1, TGFBR2 (Homo sapiens, UniProt P37173); assay: TGFBR2 RBC enzyme assay (Reaction Biology Corp.); assay type: biochemical
T1 construct: purchased Reaction Biology Corp
Description: Compounds of the disclosure were assayed by Reaction Biology Corp. using the TGFBR2 RBC enzyme assay.

T1 sequence (P37173 23-567): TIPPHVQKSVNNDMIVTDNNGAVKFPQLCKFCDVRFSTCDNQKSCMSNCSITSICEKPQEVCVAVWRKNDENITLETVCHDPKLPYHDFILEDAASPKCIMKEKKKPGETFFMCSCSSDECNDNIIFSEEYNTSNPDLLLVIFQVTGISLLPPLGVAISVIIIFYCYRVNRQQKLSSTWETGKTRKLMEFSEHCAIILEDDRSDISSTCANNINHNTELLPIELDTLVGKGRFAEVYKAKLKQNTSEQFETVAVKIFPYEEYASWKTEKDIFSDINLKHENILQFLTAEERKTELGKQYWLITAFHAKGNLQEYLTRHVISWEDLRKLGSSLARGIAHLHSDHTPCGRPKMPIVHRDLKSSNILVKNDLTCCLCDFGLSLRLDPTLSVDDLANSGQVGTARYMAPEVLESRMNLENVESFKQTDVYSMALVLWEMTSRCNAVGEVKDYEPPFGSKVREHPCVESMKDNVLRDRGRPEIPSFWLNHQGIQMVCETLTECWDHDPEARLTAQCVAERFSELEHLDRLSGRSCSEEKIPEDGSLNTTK

| Structure (SMILES) | EC50 [1] [nM] | EC50 (TGFBR2) [nM] |
| --- | --- | --- |
| CC(C)(C)OC(=O)N1C[C@@H]2C[C@@H]1COc1cccc(c1)-c1cnc(N)c(n1)C(=O)Nc1cnccc1O2 (racemic) [Compound 35, (±)-tert-butyl(5^2,5^4-trans)-1^5-amino-9-oxo-3,6-dioxa-8-aza-1(2,6)-pyrazina-7(4,3)-pyridina-5(2,4)-pyrrolidina-2(1,3)-benzenacyclononaphane-51-carboxylate] | > 5000 | > 1000 |
| Nc1ncc2nc1C(=O)Nc1cnccc1O[C@@H]1CN[C@@H](COc3cccc-2c3)C1 (racemic) [Compound 36, (±)-(5^2,5^4-trans)-1^5-amino-3,6-dioxa-8-aza-1(2,6)-pyrazina-7(4,3)-pyridina-5(2,4)-pyrrolidina-2(1,3)-benzenacyclononaphan-9-one] | > 5000 | > 1000 |
| CC(C)(C)OC(=O)N1C[C@@H]2C[C@H]1COc1cccc(c1)-c1cnc(N)c(n1)C(=O)Nc1cnccc1O2 (racemic) [Compound 37, (±)-tert-butyl(5^2,5^4-cis)-1^5-amino-9-oxo-3,6-dioxa-8-aza-1(2,6)-pyrazina-7(4,3)-pyridina-5(2,4)-pyrrolidina-2(1,3)-benzenacyclononaphane-51-carboxylate] | 1 to 1000 | 100 to 1000 |
| Nc1ncc2nc1C(=O)Nc1cnccc1O[C@@H]1CN[C@H](COc3cccc-2c3)C1 (racemic) [Compound 38, (±)-(5^2,5^4-cis)-1^5-amino-3,6-dioxa-8-aza-1(2,6)-pyrazina-7(4,3)-pyridina-5(2,4)-pyrrolidina-2(1,3)-benzenacyclononaphan-9-one] | 1 to 1000 | 1 to 100 |
| CC(C)(C)OC(=O)N1C[C@H]2C[C@H]1COc1ccncc1NC(=O)c1nc(cnc1N)-c1cccc(c1)O2 (racemic) [Compound 39, (±)-tert-butyl(4^3,4^5-trans)-1^5-amino-9-oxo-3,6-dioxa-8-aza-1(2,6)-pyrazina-7(4,3)-pyridina-4(3,5)-pyrrolidina-2(1,3)-benzenacyclononaphane-41-carboxylate] | > 5000 | > 1000 |
| Nc1ncc2nc1C(=O)Nc1cnccc1OC[C@@H]1C[C@H](CN1)Oc1cccc-2c1 (racemic) [Compound 40, (±)-(4^3,4^5-trans)-1^5-amino-3,6-dioxa-8-aza-1(2,6)-pyrazina-7(4,3)-pyridina-4(3,5)-pyrrolidina-2(1,3)-benzenacyclononaphan-9-one] | 1000 to 5000 | > 1000 |
| CC(C)(C)OC(=O)N1C[C@@H]2C[C@H]1COc1ccncc1NC(=O)c1nc(cnc1N)-c1cccc(c1)O2 (racemic) [Compound 41, (±)-tert-butyl(4^3,4^5-cis)-1^5-amino-9-oxo-3,6-dioxa-8-aza-1(2,6)-pyrazina-7(4,3)-pyridina-4(3,5)-pyrrolidina-2(1,3)-benzenacyclononaphane-41-carboxylate] | 1 to 1000 | – |
| Nc1ncc2nc1C(=O)Nc1cnccc1OC[C@@H]1C[C@@H](CN1)Oc1cccc-2c1 (racemic) [Compound 42, (±)-(4^3,4^5-cis)-1^5-amino-3,6-dioxa-8-aza-1(2,6)-pyrazina-7(4,3)-pyridina-4(3,5)-pyrrolidina-2(1,3)-benzenacyclononaphan-9-one] | 1 to 1000 | 100 to 1000 |
| Nc1ncc2nc1C(=O)Nc1cnccc1NCCOCCOCCOc1cccc-2c1 [Compound 1, 2^5-amino-9,12,15-trioxa-4,6-diaza-2(2,6)-pyrazina-5(3,4)-pyridina-1(1,3)-benzenacyclopentadecaphan-3-one] | > 5000 | > 1000 |
| Nc1ncc2nc1C(=O)Nc1cnccc1NCCCCOc1cccc-2c1 [Compound 2, 2^5-amino-11-oxa-4,6-diaza-2(2,6)-pyrazina-5(3,4)-pyridina-1(1,3)-benzenacycloundecaphan-3-one] | > 5000 | > 1000 |
| Nc1ncc2nc1C(=O)Nc1cnccc1NCCCCCOc1cccc-2c1 [Compound 3, 2^5-amino-12-oxa-4,6-diaza-2(2,6)-pyrazina-5(3,4)-pyridina-1(1,3)-benzenacyclododecaphan-3-one] | > 5000 | > 1000 |
| Nc1ncc2nc1C(=O)Nc1cnccc1NCCCOc1cccc-2c1 [Compound 4, 2^5-amino-10-oxa-4,6-diaza-2(2,6)-pyrazina-5(3,4)-pyridina-1(1,3)-benzenacyclodecaphan-3-one] | 1 to 1000 | 1 to 100 |
| CN1CCCCOc2cccc(c2)-c2cnc(N)c(n2)C(=O)Nc2cnccc21 [Compound 5, 2^5-amino-6-methyl-11-oxa-4,6-diaza-2(2,6)-pyrazina-5(3,4)-pyridina-1(1,3)-benzenacycloundecaphan-3-one] | 1 to 1000 | 1 to 100 |
| CN1CCCOc2cccc(c2)-c2cnc(N)c(n2)C(=O)Nc2cnccc21 [Compound 6, 2^5-amino-6-methyl-10-oxa-4,6-diaza-2(2,6)-pyrazina-5(3,4)-pyridina-1(1,3)-benzenacyclodecaphan-3-one] | 1 to 1000 | 1 to 100 |
| Nc1ncc2nc1C(=O)Nc1cnccc1NCCOCCOCCOCCOc1cccc-2c1 [Compound 7, 2^5-amino-9,12,15,18-tetraoxa-4,6-diaza-2(2,6)-pyrazina-5(3,4)-pyridina-1(1,3)-benzenacyclooctadecaphan-3-one] | > 5000 | > 1000 |
| Nc1ncc2nc1C(=O)Nc1cnccc1N1CCOC(COc3cccc-2c3)C1 (stereo not drawn) [Compound 8, 5^3-amino-7-oxa-3-aza-1(4,2)-morpholina-5(2,6)-pyrazina-2(4,3)-pyridina-6(1,3)-benzenacyclooctaphan-4-one] | 1000 to 5000 | 100 to 1000 |
| CN1CCCCCOc2cccc(c2)-c2cnc(N)c(n2)C(=O)Nc2cnccc21 [Compound 9, 2^5-amino-6-methyl-12-oxa-4,6-diaza-2(2,6)-pyrazina-5(3,4)-pyridina-1(1,3)-benzenacyclododecaphan-3-one] | 1 to 1000 | 1 to 100 |
| Cc1cc2cc(c1)-c1cnc(N)c(n1)C(=O)Nc1cnccc1N(C)CCCO2 [Compound 10, 2^5-amino-1^5,6-dimethyl-10-oxa-4,6-diaza-2(2,6)-pyrazina-5(3,4)-pyridina-1(1,3)-benzenacyclodecaphan-3-one] | 1 to 1000 | 1 to 100 |
| Nc1ncc2nc1C(=O)Nc1cnccc1N1CCC(CCOc3cccc-2c3)C1 (stereo not drawn) [Compound 24, 2^5-amino-9-oxa-4-aza-2(2,6)-pyrazina-5(3,4)-pyridina-6(1,3)-pyrrolidina-1(1,3)-benzenacyclononaphan-3-one] | > 5000 | – |
| CN1CCCC(=O)Nc2cccc(c2)-c2cnc(N)c(n2)C(=O)Nc2cnccc21 [Compound 28, 2^5-amino-6-methyl-4,6,11-triaza-2(2,6)-pyrazina-5(3,4)-pyridina-1(1,3)-benzenacycloundecaphane-3,10-dione] | > 5000 | – |
| Nc1ncc2nc1C(=O)Nc1cnccc1S(=O)(=O)CCCOc1ccc(Br)c-2c1 [Compound 52, 2^5-amino-1^6-bromo-10-oxa-6-thia-4-aza-2(2,6)-pyrazina-5(3,4)-pyridina-1(1,3)-benzenacyclodecaphan-3-one 6,6-dioxide] | > 5000 | – |
| CN1CCCN(C)c2ccncc2NC(=O)c2nc(cnc2N)-c2ccc(OCCCN)c(c2)C1=O [Compound 54, 2^5-amino-1^4-(3-aminopropoxy)-6,10-dimethyl-4,6,10-triaza-2(2,6)-pyrazina-5(3,4)-pyridina-1(1,3)-benzenacycloundecaphane-3,11-dione] | > 5000 | – |
